{
  "source": "patent US6403647B1",
  "about": "“Pulsed administration of compositions for the treatment of blood disorders” (priority 1996, dated 2002)",
  "tested_on": "γ-globin expression",
  "test": "γ-globin mRNA by RNase protection in erythroid cell cultures of normal individuals",
  "assay_type": "cell-based, human",
  "settings": "for x increase in % s: over ChFCS",
  "procedure": "Fetal globin production was determined in erythroid progenitor cells cultured in the presence or absence of test compositions. Erythroid cells were purified from blood obtained from a normal individual . […] Erythroid cell cultures were established with the following conditions: IMDM methylcellulose media, erythropoietin (3 U/ml), the human subjects' mononuclear cells, 30% charcoal-absorbed fetal calf serum, and the test compounds at varying micromolar concentrations.\nCompounds were tested for their ability to induce expression of fetal globin expression in erythroid cell cultures established from the peripheral blood of normal individuals. Colonies were harvested and assayed for globin mRNA following 14 days of culture. Each compound was tested in duplicate cultures from 2-4 individual human subjects. Globin expression was quantitated by RNase protection assay for % gamma globin as a fraction of total non-alpha globin (% gamma/gamma+beta globin mRNA).",
  "data": [
    {"molecule": "O=C(CCCCCCC(=O)NO)NO", "note": "[suberoyl bis hydroxamic acid, Suberoyl bis hydroxamic acid]", "values": [
      {"measurement": "x increase in % s", "setting": "0.5 μM, group 1 (99-3a, 99-3b)", "result": 1.6, "unit": "x"},
      {"measurement": "γ/γ + β", "setting": "0.5 μM, group 1, subject 99-3a", "result": 13.54, "unit": "%"},
      {"measurement": "γ/γ + β", "setting": "0.5 μM, group 1, subject 99-3b", "result": 11.55, "unit": "%"},
      {"measurement": "γ/γ + β mean", "setting": "0.5 μM, group 1, subjects 99-3a, 99-3b", "result": 12.55, "unit": "%"},
      {"measurement": "x increase in % s", "setting": "0.5 μM, group 2 (99-4, 99-5)", "result": 0.9, "unit": "x"},
      {"measurement": "γ/γ + β", "setting": "0.5 μM, group 2, subject 99-4", "result": 6.25, "unit": "%"},
      {"measurement": "γ/γ + β", "setting": "0.5 μM, group 2, subject 99-5", "result": 6.42, "unit": "%"},
      {"measurement": "γ/γ + β mean", "setting": "0.5 μM, group 2, subjects 99-4, 99-5", "result": 6.34, "unit": "%"},
      {"measurement": "x increase in % s", "setting": "1 μM, group 1 (99-3a, 99-3b)", "result": 1.3, "unit": "x"},
      {"measurement": "γ/γ + β", "setting": "1 μM, group 1, subject 99-3a", "result": 10.99, "unit": "%"},
      {"measurement": "γ/γ + β", "setting": "1 μM, group 1, subject 99-3b", "result": 9.19, "unit": "%"},
      {"measurement": "γ/γ + β mean", "setting": "1 μM, group 1, subjects 99-3a, 99-3b", "result": 10.09, "unit": "%"},
      {"measurement": "x increase in % s", "setting": "1 μM, group 2 (99-4, 99-5)", "result": 1.2, "unit": "x"},
      {"measurement": "γ/γ + β", "setting": "1 μM, group 2, subject 99-4", "result": 8.46, "unit": "%"},
      {"measurement": "γ/γ + β mean", "setting": "1 μM, group 2, subject 99-4 only", "result": 8.46, "unit": "%"},
      {"measurement": "x increase in % s", "setting": "1 μM, group 3 (99-6, 99-7, 99-10)", "result": 1.5, "unit": "x"},
      {"measurement": "γ/γ + β", "setting": "1 μM, group 3, subject 99-6", "result": 5.41, "unit": "%"},
      {"measurement": "γ/γ + β", "setting": "1 μM, group 3, subject 99-7", "result": 10.76, "unit": "%"},
      {"measurement": "γ/γ + β", "setting": "1 μM, group 3, subject 99-10", "result": 6.92, "unit": "%"},
      {"measurement": "γ/γ + β mean", "setting": "1 μM, group 3, subjects 99-6, 99-7, 99-10", "result": 7.70, "unit": "%"},
      {"measurement": "x increase in % s", "setting": "2 μM, group 1 (99-3a, 99-3b)", "result": 2.9, "unit": "x"},
      {"measurement": "γ/γ + β", "setting": "2 μM, group 1, subject 99-3a", "result": 21.36, "unit": "%"},
      {"measurement": "γ/γ + β", "setting": "2 μM, group 1, subject 99-3b", "result": 23.63, "unit": "%"},
      {"measurement": "γ/γ + β mean", "setting": "2 μM, group 1, subjects 99-3a, 99-3b", "result": 22.50, "unit": "%"},
      {"measurement": "x increase in % s", "setting": "2 μM, group 2 (99-4, 99-5)", "result": 1.5, "unit": "x"},
      {"measurement": "γ/γ + β", "setting": "2 μM, group 2, subject 99-4", "result": 9.92, "unit": "%"},
      {"measurement": "γ/γ + β", "setting": "2 μM, group 2, subject 99-5", "result": 10.65, "unit": "%"},
      {"measurement": "γ/γ + β mean", "setting": "2 μM, group 2, subjects 99-4, 99-5", "result": 10.29, "unit": "%"},
      {"measurement": "x increase in % s", "setting": "2 μM, group 3 (99-6, 99-7, 99-10)", "result": 2.1, "unit": "x"},
      {"measurement": "γ/γ + β", "setting": "2 μM, group 3, subject 99-6", "result": 6.65, "unit": "%"},
      {"measurement": "γ/γ + β", "setting": "2 μM, group 3, subject 99-7", "result": 15.75, "unit": "%"},
      {"measurement": "γ/γ + β", "setting": "2 μM, group 3, subject 99-10", "result": 10.00, "unit": "%"},
      {"measurement": "γ/γ + β mean", "setting": "2 μM, group 3, subjects 99-6, 99-7, 99-10", "result": 10.80, "unit": "%"},
      {"measurement": "x increase in % s", "setting": "3 μM, group 1 (99-3a, 99-3b)", "result": 3.2, "unit": "x"},
      {"measurement": "γ/γ + β", "setting": "3 μM, group 1, subject 99-3a", "result": 24.90, "unit": "%"},
      {"measurement": "γ/γ + β", "setting": "3 μM, group 1, subject 99-3b", "result": 23.72, "unit": "%"},
      {"measurement": "γ/γ + β mean", "setting": "3 μM, group 1, subjects 99-3a, 99-3b", "result": 24.31, "unit": "%"},
      {"measurement": "x increase in % s", "setting": "3 μM, group 2 (99-4, 99-5)", "result": 2.6, "unit": "x"},
      {"measurement": "γ/γ + β", "setting": "3 μM, group 2, subject 99-4", "result": 17.99, "unit": "%"},
      {"measurement": "γ/γ + β", "setting": "3 μM, group 2, subject 99-5", "result": 17.89, "unit": "%"},
      {"measurement": "γ/γ + β mean", "setting": "3 μM, group 2, subjects 99-4, 99-5", "result": 17.94, "unit": "%"},
      {"measurement": "x increase in % s", "setting": "4 μM, group 1 (99-3a, 99-3b)", "result": 6.4, "unit": "x"},
      {"measurement": "γ/γ + β", "setting": "4 μM, group 1, subject 99-3a", "result": 48.57, "unit": "%"},
      {"measurement": "γ/γ + β", "setting": "4 μM, group 1, subject 99-3b", "result": 50.66, "unit": "%"},
      {"measurement": "γ/γ + β mean", "setting": "4 μM, group 1, subjects 99-3a, 99-3b", "result": 49.62, "unit": "%"},
      {"measurement": "x increase in % s", "setting": "4 μM, group 2 (99-4, 99-5)", "result": 3.4, "unit": "x"},
      {"measurement": "γ/γ + β", "setting": "4 μM, group 2, subject 99-4", "result": 24.10, "unit": "%"},
      {"measurement": "γ/γ + β mean", "setting": "4 μM, group 2, subject 99-4 only", "result": 24.10, "unit": "%"},
      {"measurement": "x increase in % s", "setting": "4 μM, group 3 (99-6, 99-7, 99-10)", "result": 3.9, "unit": "x"},
      {"measurement": "γ/γ + β", "setting": "4 μM, group 3, subject 99-6", "result": 13.33, "unit": "%"},
      {"measurement": "γ/γ + β", "setting": "4 μM, group 3, subject 99-7", "result": 30.45, "unit": "%"},
      {"measurement": "γ/γ + β", "setting": "4 μM, group 3, subject 99-10", "result": 15.73, "unit": "%"},
      {"measurement": "γ/γ + β mean", "setting": "4 μM, group 3, subjects 99-6, 99-7, 99-10", "result": 19.84, "unit": "%"},
      {"measurement": "x increase in % s", "setting": "4 μM, group 4 (99-10, 00-1, 00-3)", "result": 1.7, "unit": "x"},
      {"measurement": "γ/γ + β", "setting": "4 μM, group 4, subject 00-1", "result": 4.82, "unit": "%"},
      {"measurement": "γ/γ + β", "setting": "4 μM, group 4, subject 00-3", "result": 5.01, "unit": "%"},
      {"measurement": "γ/γ + β", "setting": "4 μM, group 4, subject 99-10", "result": 11.38, "unit": "%"},
      {"measurement": "γ/γ + β mean", "setting": "4 μM, group 4, subjects 99-10, 00-1, 00-3", "result": 7.07, "unit": "%"},
      {"measurement": "x increase in % s", "setting": "6 μM, group 3 (99-6, 99-7, 99-10)", "result": 5.5, "unit": "x"},
      {"measurement": "γ/γ + β", "setting": "6 μM, group 3, subject 99-6", "result": 22.97, "unit": "%"},
      {"measurement": "γ/γ + β", "setting": "6 μM, group 3, subject 99-7", "result": 31.51, "unit": "%"},
      {"measurement": "γ/γ + β", "setting": "6 μM, group 3, subject 99-10", "result": 29.15, "unit": "%"},
      {"measurement": "γ/γ + β mean", "setting": "6 μM, group 3, subjects 99-6, 99-7, 99-10", "result": 27.88, "unit": "%"},
      {"measurement": "x increase in % s", "setting": "6 μM, group 4 (99-10, 00-1, 00-3)", "result": 2.7, "unit": "x"},
      {"measurement": "γ/γ + β", "setting": "6 μM, group 4, subject 00-1", "result": 9.46, "unit": "%"},
      {"measurement": "γ/γ + β", "setting": "6 μM, group 4, subject 00-3", "result": 8.89, "unit": "%"},
      {"measurement": "γ/γ + β", "setting": "6 μM, group 4, subject 99-10", "result": 16.34, "unit": "%"},
      {"measurement": "γ/γ + β mean", "setting": "6 μM, group 4, subjects 99-10, 00-1, 00-3", "result": 11.56, "unit": "%"},
      {"measurement": "x increase in % s", "setting": "8 μM, group 3 (99-6, 99-7, 99-10)", "result": 7.4, "unit": "x"},
      {"measurement": "γ/γ + β", "setting": "8 μM, group 3, subject 99-6", "result": 31.99, "unit": "%"},
      {"measurement": "γ/γ + β", "setting": "8 μM, group 3, subject 99-7", "result": 44.02, "unit": "%"},
      {"measurement": "γ/γ + β", "setting": "8 μM, group 3, subject 99-10", "result": 35.73, "unit": "%"},
      {"measurement": "γ/γ + β mean", "setting": "8 μM, group 3, subjects 99-6, 99-7, 99-10", "result": 37.25, "unit": "%"},
      {"measurement": "x increase in % s", "setting": "8 μM, group 4 (99-10, 00-1, 00-3)", "result": 4.4, "unit": "x"},
      {"measurement": "γ/γ + β", "setting": "8 μM, group 4, subject 00-1", "result": 12.88, "unit": "%"},
      {"measurement": "γ/γ + β", "setting": "8 μM, group 4, subject 00-3", "result": 21.68, "unit": "%"},
      {"measurement": "γ/γ + β", "setting": "8 μM, group 4, subject 99-10", "result": 21.37, "unit": "%"},
      {"measurement": "γ/γ + β mean", "setting": "8 μM, group 4, subjects 99-10, 00-1, 00-3", "result": 18.64, "unit": "%"},
      {"measurement": "x increase in % s", "setting": "10 μM, group 4 (99-10, 00-1, 00-3)", "result": 7.3, "unit": "x"},
      {"measurement": "γ/γ + β", "setting": "10 μM, group 4, subject 00-1", "result": 27.89, "unit": "%"},
      {"measurement": "γ/γ + β", "setting": "10 μM, group 4, subject 00-3", "result": 31.25, "unit": "%"},
      {"measurement": "γ/γ + β", "setting": "10 μM, group 4, subject 99-10", "result": 35.06, "unit": "%"},
      {"measurement": "γ/γ + β mean", "setting": "10 μM, group 4, subjects 99-10, 00-1, 00-3", "result": 31.40, "unit": "%"},
      {"measurement": "x increase in % s", "setting": "12 μM, group 4 (99-10, 00-1, 00-3)", "result": 10.8, "unit": "x"},
      {"measurement": "γ/γ + β", "setting": "12 μM, group 4, subject 00-3", "result": 45.69, "unit": "%"},
      {"measurement": "γ/γ + β", "setting": "12 μM, group 4, subject 99-10", "result": 46.94, "unit": "%"},
      {"measurement": "γ/γ + β mean", "setting": "12 μM, group 4, subjects 99-10, 00-3", "result": 46.32, "unit": "%"}
    ]}
  ]
}
